Assays:
[1] = Organ distribution of Se-75 labeled compound in rats after intravenous injection; assay type: in vivo, Spraque-Dawley male rats; details: rat; for penetration of the blood brain barrier (in words) / % dose/organ, heart / % dose/organ, kidney / % dose/organ, liver / % dose/organ, lung(2) / % dose/organ, pancreas / % dose/organ, spleen / % dose/organ, brain (brain uptake) / % dose/organ, blood / % dose/organ, muscle: i.v.; for % dose/organ, blood: blood assumed 7% of body weight; for % dose/organ, muscle: muscle assumed 40% of body weight
From the text: FIGS. 2 and 3 respectively show the relative concentration of Se-75 labeled di-β-(piperidinoethyl)-selenide and di-β-(morpholinoethyl)-selenide in rat brains at several time intervals after an intravenous injection of a dose of the respective compounds into the rat. As is shown in FIG. 3, and also in Table 4, two minutes after an intravenous injection of Se-75 labeled di-β-(morpholinoethyl)-selenide, the brain uptake of the radiopharmaceutical compound reaches a value of 3.19%. […] The terms uptake, % uptake or % dose are used to describe the percentage of the radiopharmaceutical compound contained in a given organ or tissue as compared to the total initial dose. The numerical values in FIGS. 2 and 3 and Tables 3 and 4 represent such percentages.
Studies of distribution of the radiopharmaceutical compounds of the present invention in rats, the results of which are reflected in FIGS. 2 and 3 and Tables 3 and 4, were conducted according to standard practice in the pharmacological sciences, and therefore need not be described here in great detail. Nevertheless, for the sake of complete understanding of the present invention, some experimental details of these studies are briefly described below:
Spraque-Dawley male rats (220-300 g) were injected intravenously (femoral vein) with a 0.2 ml solution (0.5-2 micro Ci) under light ether anaesthesia. At different time periods after the injection, the animals were sacrificed and organs of interest were excised and counted in a well counter. Percent dose was estimated by comparison of tissue counts to suitably diluted aliquots of the injected material. Total activities in blood and muscle were calculated by assuming that they are 7% and 40% of the body weight respectively.

[2] = n-octanol-aqueous medium partition coefficient pH correlation; assay type: physicochemical; details: for partition coefficient / lipid solubility at the pH of the blood (in words): pH 7.4, morpholinoethyl vs piperidinoethyl selenide
From the text: The n-octanol-aqueous medium partition coefficients of the compound are readily measured in accordance with standard practice in the prior art. Briefly, such measurements include the steps of dissolving a known amount of the compound in an aqueous buffer of a predetermined pH and extracting the buffer solution with a known amount of n-octanol until an equilibrium of distribution of the compound between the aqueous and n-octanol phases occurs. The concentration of the compound in both phases is then measured by suitable analytical means, such as ultraviolet spectrophotometry; the partition coefficient being the ratio of the two measured concentrations.
For the purposes of evaluating a plurality of radioactive compounds for use in the novel method of the present invention, the n-octanol-aqueous medium partition coefficients of the compounds were measured in the following manner. The radioactive compound was mixed with 1.0 ml of n-octanol and 1.0 ml of buffer of the desired predetermined pH. The radioactivity of this mixture was counted, and the mixture was placed in a water bath shaker at 37° C. for 2 hours. After centrifugation at 3,000 rpm for 5 minutes, the n-octanol layer was separated and its radioactivity counted. The partition coefficient of the compound was calculated by the following equation: [formula]

[3] = Brain imaging study on rhesus monkey (Cleon 710 ECAT scanner); assay type: in vivo, rhesus monkeys; details: 5.3 kg monkey, 1 mCi injected, images 15 minutes to 2 hours
Experimental: In addition to the above described organ and tissue distribution studies in rats of the several compounds of the present invention, brain imaging studies were also conducted on rhesus monkeys using a Cleon 710 ECAT scanner.
A 5.3 kg monkey, lightly sedated with Ketalar, was injected with 1 mCi of di-β-(morpholinoethyl)-selenide, (specific activity 1 mCi/mg). Five minutes later the monkey was anaesthetized with pentabarbital. A series of tomographic images was taken at roughly 1/2" intervals starting at the vertex. The first image was started 15 minutes after injection and various images were recorded up to 2 hours after injection. Each image contained approximately one million counts. At the conclusion of the imaging experiment, the monkey was killed and the brain was assayed in the dose calibrator used for measuring the injected dose. No correction was applied for the change in geometry between the syringe and the monkey brain. The weight of the brain was 84 g.

[4] = cited from earlier work
[5] = 2 min (morpholinoethyl: average of 5 samples)

SMILES: C1CN(CC[75Se]CCN2CCOCC2)CCO1 [di-β-(morpholinoethyl)-selenide]
- decrease of brain content (% dose) (in words) ([1]; after intravenous injection): decreases much more rapidly after the intravenous injection than that of di-β-(piperidinoethyl)-selenide
- penetration of the blood brain barrier (in words) [1]: capable of penetrating the blood brain barrier
- % dose/organ, heart ([1]; 2 min): 0.45%
- % dose/organ, kidney ([1]; 2 min): 9.89%
- % dose/organ, liver ([1]; 2 min): 18.3%
- % dose/organ, lung(2) ([1]; 2 min): 2.77%
- % dose/organ, pancreas ([1]; 2 min): 0.88%
- % dose/organ, spleen ([1]; 2 min): 0.68%
- % dose/organ, brain (brain uptake) [1, 5]: 3.19%
- % dose/organ, blood ([1]; 2 min): 3.13%
- % dose/organ, muscle ([1]; 2 min): 10.5%
- % dose/organ, brain (brain uptake) ([1]; 5 min): 2.80%
- % dose/organ, kidney ([1]; 5 min): 7.46%
- % dose/organ, liver ([1]; 5 min): 19.7%
- % dose/organ, spleen ([1]; 5 min): 0.87%
- % dose/organ, blood ([1]; 5 min): 2.72%
- % dose/organ, muscle ([1]; 5 min): 15.0%
- % dose/organ, brain (brain uptake) ([1]; 15 min (average of 6 rats)): 2.23%
- % dose/organ, kidney ([1]; 15 min (average of 6 rats)): 4.04%
- % dose/organ, liver ([1]; 15 min (average of 6 rats)): 22.1%
- % dose/organ, spleen ([1]; 15 min (average of 6 rats)): 1.23%
- % dose/organ, blood ([1]; 15 min (average of 6 rats)): 2.26%
- % dose/organ, muscle ([1]; 15 min (average of 6 rats)): 19.4%
- % dose/organ, brain (brain uptake) ([1]; 30 min): 1.53%
- % dose/organ, heart ([1]; 30 min): 0.22%
- % dose/organ, kidney ([1]; 30 min): 4.03%
- % dose/organ, liver ([1]; 30 min): 23.3%
- % dose/organ, lung(2) ([1]; 30 min): 1.79%
- % dose/organ, pancreas ([1]; 30 min): 0.38%
- % dose/organ, spleen ([1]; 30 min): 1.55%
- % dose/organ, blood ([1]; 30 min): 2.82%
- % dose/organ, muscle ([1]; 30 min): 14.4%
- % dose/organ, brain (brain uptake) ([1]; 1 hr): 1.19%
- % dose/organ, kidney ([1]; 1 hr): 4.30%
- % dose/organ, liver ([1]; 1 hr): 29.9%
- % dose/organ, blood ([1]; 1 hr): 2.61%
- % dose/organ, muscle ([1]; 1 hr): 13.6%
- % dose/organ, brain (brain uptake) ([1]; 2 hr): 0.56%
- % dose/organ, heart ([1]; 2 hr): 0.18%
- % dose/organ, kidney ([1]; 2 hr): 3.42%
- % dose/organ, liver ([1]; 2 hr): 21.7%
- % dose/organ, lung(2) ([1]; 2 hr): 0.94%
- % dose/organ, pancreas ([1]; 2 hr): 0.25%
- % dose/organ, spleen ([1]; 2 hr): 0.88%
- % dose/organ, blood ([1]; 2 hr): 2.46%
- % dose/organ, muscle ([1]; 2 hr): 17.7%
- % dose/organ, brain (brain uptake) ([1]; 6 hr): 0.10%
- % dose/organ, kidney ([1]; 6 hr): 0.64%
- % dose/organ, liver ([1]; 6 hr): 4.38%
- % dose/organ, spleen ([1]; 6 hr): 0.19%
- % dose/organ, blood ([1]; 6 hr): 0.61%
- % dose/organ, muscle ([1]; 6 hr): 3.43%
- % dose/organ, brain (brain uptake) ([1]; 24 hr): 0.02%
- % dose/organ, heart ([1]; 24 hr): 0.02%
- % dose/organ, kidney ([1]; 24 hr): 0.29%
- % dose/organ, liver ([1]; 24 hr): 2.15%
- % dose/organ, lung(2) ([1]; 24 hr): 0.04%
- % dose/organ, pancreas ([1]; 24 hr): 0.01%
- % dose/organ, spleen ([1]; 24 hr): 0.10%
- % dose/organ, blood ([1]; 24 hr): 0.13%
- % dose/organ, muscle ([1]; 24 hr): 0.74%
- partition coefficient / lipid solubility at the pH of the blood (in words) [2]: higher partition coefficient at the pH of the blood (7.4) than di-β-(piperidinoethyl)-selenide
- distribution in monkey brain (in words) [3]: resembles the distribution observed for F-18 2-fluoro-2-deoxyglucose or for N-13 labeled ammonia, with a higher uptake of the radiopharmaceutical compound in gray matter of the brain than in white matter

SMILES: C1CCN(CC[Se]CCN2CCCCC2)CC1 [di-β-(piperidinoethyl)-selenide]
- penetration of the blood brain barrier (in words) [1]: capable of penetrating the blood brain barrier
- % dose/organ, heart ([1]; 2 min): 3.04%
- % dose/organ, kidney ([1]; 2 min): 7.14%
- % dose/organ, liver ([1]; 2 min): 12.0%
- % dose/organ, lung(2) ([1]; 2 min): 20.0%
- % dose/organ, pancreas ([1]; 2 min): 0.62%
- % dose/organ, spleen ([1]; 2 min): 0.51%
- % dose/organ, brain (brain uptake) [1, 5]: 1.09%
- % dose/organ, blood ([1]; 2 min): 4.58%
- % dose/organ, muscle ([1]; 2 min): 7.39%
- % dose/organ, brain (brain uptake) ([1]; 30 min): 1.49%
- % dose/organ, heart ([1]; 30 min): 0.89%
- % dose/organ, kidney ([1]; 30 min): 9.21%
- % dose/organ, liver ([1]; 30 min): 14.3%
- % dose/organ, lung(2) ([1]; 30 min): 2.83%
- % dose/organ, pancreas ([1]; 30 min): 1.42%
- % dose/organ, spleen ([1]; 30 min): 1.31%
- % dose/organ, blood ([1]; 30 min): 0.87%
- % dose/organ, muscle ([1]; 30 min): 13.4%
- % dose/organ, brain (brain uptake) ([1]; 1 hr): 1.53%
- % dose/organ, heart ([1]; 1 hr): 0.35%
- % dose/organ, kidney ([1]; 1 hr): 4.43%
- % dose/organ, liver ([1]; 1 hr): 16.6%
- % dose/organ, lung(2) ([1]; 1 hr): 1.92%
- % dose/organ, pancreas ([1]; 1 hr): 1.07%
- % dose/organ, spleen ([1]; 1 hr): 0.90%
- % dose/organ, blood ([1]; 1 hr): 0.75%
- % dose/organ, muscle ([1]; 1 hr): 16.1%
- % dose/organ, brain (brain uptake) ([1]; 2 hr): 1.63%
- % dose/organ, heart ([1]; 2 hr): 0.19%
- % dose/organ, kidney ([1]; 2 hr): 2.89%
- % dose/organ, liver ([1]; 2 hr): 15.9%
- % dose/organ, lung(2) ([1]; 2 hr): 0.85%
- % dose/organ, pancreas ([1]; 2 hr): 0.84%
- % dose/organ, spleen ([1]; 2 hr): 1.03%
- % dose/organ, blood ([1]; 2 hr): 0.65%
- % dose/organ, muscle ([1]; 2 hr): 12.0%
- % dose/organ, brain (brain uptake) ([1]; 4 hr): 1.32%
- % dose/organ, heart ([1]; 4 hr): 0.16%
- % dose/organ, kidney ([1]; 4 hr): 1.53%
- % dose/organ, liver ([1]; 4 hr): 16.0%
- % dose/organ, lung(2) ([1]; 4 hr): 0.82%
- % dose/organ, pancreas ([1]; 4 hr): 0.60%
- % dose/organ, spleen ([1]; 4 hr): 0.61%
- % dose/organ, blood ([1]; 4 hr): 0.59%
- % dose/organ, muscle ([1]; 4 hr): 11.9%
- % dose/organ, brain (brain uptake) ([1]; 6 hr): 1.18%
- % dose/organ, kidney ([1]; 6 hr): 0.64%
- % dose/organ, liver ([1]; 6 hr): 7.66%
- % dose/organ, spleen ([1]; 6 hr): 0.34%
- % dose/organ, blood ([1]; 6 hr): 0.51%
- % dose/organ, muscle ([1]; 6 hr): 11.5%
- % dose/organ, brain (brain uptake) ([1]; 24 hr): 0.91%
- % dose/organ, heart ([1]; 24 hr): 0.03%
- % dose/organ, kidney ([1]; 24 hr): 0.38%
- % dose/organ, liver ([1]; 24 hr): 4.79%
- % dose/organ, lung(2) ([1]; 24 hr): 0.31%
- % dose/organ, pancreas ([1]; 24 hr): 0.11%
- % dose/organ, spleen ([1]; 24 hr): 0.10%
- % dose/organ, blood ([1]; 24 hr): 0.20%
- % dose/organ, muscle ([1]; 24 hr): 2.81%
- % dose/organ, brain (brain uptake) ([1]; 3 day): 0.16%
- % dose/organ, kidney ([1]; 3 day): 0.12%
- % dose/organ, liver ([1]; 3 day): 1.72%
- % dose/organ, spleen ([1]; 3 day): 0.01%
- % dose/organ, blood ([1]; 3 day): 0.08%
- % dose/organ, muscle ([1]; 3 day): 0.40%
- partition coefficient pH dependence (in words) ([2]; n-octanol-aqueous medium, pH 6.6 to 7.6): much higher partition coefficient pH dependence
- partition coefficient / lipid solubility at the pH of the blood (in words) [2]: less lipid soluble at the pH of the blood

SMILES: Cc1c(I)c(=O)n(-c2ccccc2)n1C [iodoantipyrine]
- penetration of brain tissue (in words) ([4]; in vivo): able to penetrate brain tissue
- retention in brain (in words) ([4]; within one hour after penetration): almost completely leaves the brain by diffusion
